Data on 14 compounds can be found in patent US7125986B2, “Penicillanic acid derivative compounds and methods of making” (Southern Methodist University Foundation for Research, priority 1997, dated 2006).

The target in one assay is TEM-1 β-lactamase (Escherichia coli, UniProt P62593). Description: β-lactamase inhibition, nitrocefin hydrolysis (TEM-1). It is filed as biochemical. How it is done: (§1) The IC50 value of each compound was determined as follows. Following a 10 minute incubation of a dilute solution of enzyme (2.56 nM) and inhibitor (<0.64 μM), a 50 μL aliquot of the incubation mixture was further diluted into 1 mL nitrocefin (a substrate) solution, and the rate of hydrolysis was measured during a 1 minute period by monitoring the absorbance of nitrocefin as a function of time.
TEM-1 β-lactamase, sequence (P62593 24-286 limits assumed): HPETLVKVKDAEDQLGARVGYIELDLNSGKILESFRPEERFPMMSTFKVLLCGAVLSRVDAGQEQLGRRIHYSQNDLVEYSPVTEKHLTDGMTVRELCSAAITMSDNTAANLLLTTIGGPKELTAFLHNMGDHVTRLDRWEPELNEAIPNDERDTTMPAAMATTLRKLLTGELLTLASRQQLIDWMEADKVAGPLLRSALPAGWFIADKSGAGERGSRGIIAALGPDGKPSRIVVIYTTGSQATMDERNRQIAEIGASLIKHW

Assay [1] has as its target β-lactamase of Enterobacter cloacae P99 (Enterobacter cloacae, UniProt P05364). As to the kind of experiment: β-lactamase inhibition, nitrocefin hydrolysis (P99). It is filed as biochemical. The note with it: for β-lactamase inhibiting activity greater than compound 9 by a factor, P99: factor relative to compound 9. How it is done:
as §1

Where [2] appears, read: 10 minute incubation of enzyme (2.56 nM) and inhibitor, nitrocefin substrate, read-out: IC50 (uM) TEM-1.
[3] abbreviates: 10 minute incubation of enzyme (2.56 nM) and inhibitor, nitrocefin substrate, read-out: IC50 (uM) Ent. cloacae P99.

Counter-ions that a name gives are not always drawn. Like-named read-outs stand apart in the source and are kept apart here.

β-lactamase of Enterobacter cloacae P99, sequence (P05364 21-381): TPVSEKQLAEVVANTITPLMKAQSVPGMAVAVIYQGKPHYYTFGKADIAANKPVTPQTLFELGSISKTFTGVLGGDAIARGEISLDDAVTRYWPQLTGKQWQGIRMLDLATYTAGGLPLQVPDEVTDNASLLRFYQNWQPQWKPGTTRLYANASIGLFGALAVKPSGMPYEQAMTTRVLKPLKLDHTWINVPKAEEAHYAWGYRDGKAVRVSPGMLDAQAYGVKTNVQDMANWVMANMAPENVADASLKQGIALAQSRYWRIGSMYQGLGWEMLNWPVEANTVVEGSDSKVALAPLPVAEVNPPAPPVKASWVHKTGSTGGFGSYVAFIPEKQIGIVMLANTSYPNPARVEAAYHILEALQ

Regarding `C[C@]1(COC(=O)Cc2ccccc2)[C@H](C(=O)O)N2C(=O)/C(=C/C(=O)O)[C@H]2S1(=O)=O` [Compound 8d, Disodium salt of 2β-(phenylacetoxymethyl)-6-[(Z)-carboxymethylene]-penicillinate 1,1-dioxide], the IC50 turned out to be 0.015 µM against TEM-1 β-lactamase and 0.54 µM in assay [1].

Turning to `CC(C)(C)OC(=O)/C=C1/C(=O)N2[C@@H](C(=O)O)[C@](C)(CCl)S(=O)(=O)[C@H]12` [Compound 12a, Sodium salt of 2β-(chloromethyl)-6-[(Z)-(t-butoxycarbonyl)methylene]-penicillinic acid 1,1 dioxide], the values for the half-maximal inhibitory concentration (IC50) (at TEM-1 β-lactamase (setting [2]); in assay [1] (setting [3])) were 39 µM and 7.62 µM, respectively.

For the compound `Cn1nnnc1SCC(=O)OCC1(C)C(C(=O)O)N2C(=O)C(=CC(=O)O)C2S1(=O)=O` (stereo not drawn) [Compound 8g, Disodium salt of 2β-[[(1-methyl-1H-tetrazol-5-yl)thio]acetoxymethyl]-6-[(Z)-carboxymethylene]penicillinate 1,1-dioxide], the IC50 amounted to 0.23 µM on TEM-1 β-lactamase (setting [2]) and 0.64 µM in assay [1] (setting [3]).

Regarding `C[C@]1(COC=O)[C@H](C(=O)O)N2C(=O)/C(=C/C(=O)O)[C@H]2S1(=O)=O` [Compound 8c, Disodium salt of 2β-(formyloxymethyl)-6-[(Z)-carboxymethylene]-penicillinate 1,1-dioxide], the IC50 in assay [1] (setting [3]) was found to be 0.3 µM. Also, the “β-lactamase inhibiting activity greater than compound 9 by a factor, P99” value in assay [1] was around 2.

`C[C@]1(COC(=O)Cc2ccccc2)[C@H](C(=O)O)N2C(=O)/C(=C/c3ccccn3)[C@H]2S1(=O)=O` [Compound 29b, Sodium 1,1-Dioxo-2β-(phenylacetoxy)methyl-6-[(Z)-2′-pyridylmethylene]penicillinate]: at TEM-1 β-lactamase, it took 0.39 µM to reach half-maximal inhibition (IC50) and the “β-lactamase inhibiting activity against TEM-1 (in words)” value was “potent”. Besides, in assay [1], the “β-lactamase inhibiting activity against P99 (in words)” value was “potent”.

As for `CC(=O)OCC1(C)C(C(=O)O)N2C(=O)C(=Cc3ccccn3)C2S1(=O)=O` (stereo not drawn) [Compound 29a, Sodium 2β-(acetoxymethyl)-1,1-dioxo-6-[(Z)-2′-pyridylmethylene]penicillinate], at TEM-1 β-lactamase, the “β-lactamase inhibiting activity against TEM-1 (in words)” value is reported as “potent”. Besides, the IC50 worked out at 0.004 µM at TEM-1 β-lactamase (setting [2]) and 0.062 µM in assay [1] (setting [3]). In assay [1], the “β-lactamase inhibiting activity against P99 (in words)” value is “potent”.

As for `CC(=O)OC[C@@]1(C)[C@H](C(=O)O)N2C(=O)/C(=C/C(=O)O)[C@H]2S1(=O)=O` [Compound 8a, Disodium salt of 2β-(acetoxymethyl)-6-[(Z)-carboxymethylene]-penicillinic acid-1,1-dioxide], the IC50 turned out to be 0.213 µM at TEM-1 β-lactamase (setting [2]) and 0.383 µM in assay [1] (setting [3]). The “β-lactamase inhibiting activity greater than compound 9 by a factor, P99” value in assay [1] is recorded as around 2.

Turning to `C[C@]1(C=CC#N)[C@H](C(=O)O)N2C(=O)/C(=C/C(=O)O)[C@H]2S1(=O)=O` (mixture of isomers) [Compound 17, Disodium Salt of 2β-[(E/Z)-(cyanoethenyl)]-6-[(Z)-carboxymethylene]-penicillinate 1,1-dioxide], in assay [1] (setting [3]), the IC50 came to 6.76 µM.

Consider `COC(=O)/C=C1/C(=O)N2[C@@H](C(=O)O)[C@](C)(CCl)S(=O)(=O)[C@H]12` [Compound 12b, Sodium salt of 2β-(chloromethyl)-6-[(Z)-(methoxycarbonyl)methylene]-penicillanic acid 1,1 dioxide], for which the IC50 in assay [1] (setting [3]) was determined as 6.96 µM.

In the case of `CC1(COC(=O)Cc2ccc(O)c(O)c2)C(C(=O)O)N2C(=O)C(=CC(=O)O)C2S1(=O)=O` (stereo not drawn) [Compound 8i, Disodium Salt of 2β-[(3′,4′-Dihydroxyphenyl)acetoxy]methyl-6-[(Z)-carboxymethylene]-1,1-dioxopenicillinate], in assay [1] (setting [3]), the IC50 came out at 0.37 µM.

For `COC(=O)/C=C1/C(=O)N2[C@@H](C(=O)O)[C@](C)(COC(=O)CSc3nnnn3C)S(=O)(=O)[C@H]12` [Compound 8h, Sodium salt of 2β-[[(1-methyl-1H-tetrazol-5-yl)thio]acetoxymethyl]-6-[(Z)-(methoxycarbonyl)methylene]penicillinate 1,1-dioxide], in assay [1] (setting [3]), the IC50 was 3.69 µM.

On to `CC1(CCl)C(C(=O)O)N2C(=O)/C(=C/C(=O)O)C2S1(=O)=O` (stereo not drawn) [Compound 12c, Disodium salt of 2β-(chloromethyl)-6-[(Z)-carboxymethylene]penicillinate 1,1-dioxide], for which the IC50 at TEM-1 β-lactamase (setting [2]) stood at 120 µM; in assay [1] (setting [3]), 105 µM.

As to `COC(=O)C=C1C(=O)N2C(C(=O)O)C(C)(COC(C)=O)S(=O)(=O)C12` (stereo not drawn) [Compound 8e, Sodium salt of 2β-(acetoxymethyl)-6-[(Z)-(methoxycarbonyl)methylene]-penicillinic acid 1,1 dioxide], the IC50 in assay [1] (setting [3]) worked out at 2.66 µM.

With `CC1(COC(=O)CCl)C(C(=O)O)N2C(=O)C(=CC(=O)O)C2S1(=O)=O` (stereo not drawn) [Compound 8b, Disodium salt of 2β-(chloroacetoxymethyl)-6-[(Z)-carboxymethylene]-penicillinate 1,1-dioxide], on TEM-1 β-lactamase (setting [2]), the IC50 is 0.19 µM.
